In paper PMC9728226, “Suppressive Effects of a Truncated Inhibitor K562 Protein-Derived Peptide on Two Proinflammatory Cytokines, IL-17 and TNF-α” (Journal of Microbiology and Biotechnology, 2020):
Peptide text beside a SMILES is read from it.

How the values were obtained:
[1] = test system: Th17 cell differentiation (mouse IL-17); assay type: cell-based; conditions: 1.0 μg/ml; second experiment (Fig. 3B), control 0.1% DMSO; IL-17 ELISA; mean of n = 3
Procedure: Naïve CD4^+ T cells were isolated from the spleen of wild-type Balb/c mice via magnetic-activated cell sorting using a CD4^+ T Cell Isolation Kit (Miltenyi Biotec, Germany), in accordance with the manufacturer’s instructions. The RPMI medium for stimulating Th17 cell differentiation included 10 μg/ml anti-CD3 (eBioscience, USA), 1.5 μg/ml anti-CD28 (eBioscience), 5 ng/ml transforming growth factor-β (R&D Systems, USA), and 20 ng/ml IL-6 (BioLegend, USA). After cells had been cultured in this conditioned medium for 2 days at 37°C, 100 μl of the supernatant was analyzed for mouse IL-17 (mIL-17) using an IL-17-specific enzyme-linked immunosorbent assay (ELISA). All tests were repeated three times independently, and the means and standard deviations (SDs) from three tests were calculated.

[2] = test system: mTNF-α secretion by J774A.1 cells; experiment: mTNF-α secretion by LPS-stimulated J774A.1 cells, ELISA; assay type: cell-based, mouse; conditions: 24 h, mean of n = 3; for inhibition of mTNF-α: J774A.1 cells, 100 ng/ml LPS, Fig. 3D
Procedure: The murine monocyte/macrophage cell line J774A.1 was obtained from the American Type Culture Collection (ATCC, USA), grown in Dulbecco’s modified Eagle’s medium (Gibco Laboratories, USA), and cultured at 37°C in humidified 5% CO2. The culture medium was supplemented with 10% fetal bovine serum and 2 mM glutamine. The cells were seeded into 24-well culture plates at a density of 1 × 10^5/ml and allowed to adhere overnight. Thereafter, the medium was replaced with fresh medium. The cells were pre-treated with DMS or a peptide (P1, P2, P3, P4, or P4S) and then stimulated with 100 ng/ml of lipopolysaccharide (LPS). Supernatants were collected after 24 h and stored at -20°C. Concentrations of mouse TNF-α (mTNF-α) were measured using ELISA (Mouse TNF-α DuoSet ELISA Kit; R&D Systems Europe, UK) according to the manufacturer’s instructions. All tests were repeated three times independently, and the results are expressed as means ± SDs.

| Molecule | inhibition of mIL-17 [1] [%] | inhibition rate against mTNF-α ([2]; 1 μg/ml, J774A.1 cells pre-treated, then 100 ng/ml LPS, vs LPS-only group, Fig. 3C) [%] | inhibition of mTNF-α ([2]; 0.1 μg/ml) [%] | inhibition of mTNF-α ([2]; 1.0 μg/ml) [%] |
| --- | --- | --- | --- | --- |
| CSCC[C@H](NC(=O)[C@H](CC(=O)O)NC(=O)[C@H](CC(=O)O)NC(=O)[C@H](CCSC)NC(=O)[C@@H](NC(=O)[C@H](C)NC(=O)[C@@H]1CCCN1C(=O)[C@@H](N)Cc1ccc(O)cc1)[C@@H](C)O)C(=O)N[C@@H](C)C(=O)N[C@H](C(=O)N[C@@H](CC(=O)O)C(=O)N[C@@H](CO)C(=O)N[C@@H](CC(=O)O)C(=O)N[C@@H](CCC(=O)O)C(=O)N[C@@H](CCC(=O)O)C(=O)N[C@H](C(=O)N[C@@H](CC(=O)O)C(=O)N[C@@H](Cc1ccc(O)cc1)C(=O)O)C(C)C)C(C)C [P4] (H-YPATMDDMAVDSDEEVDY-OH; N-terminus and C-terminus assumed) | 42.4 | 50.2 |  |  |
| YPATMDDMA [P4S, 9-mer human tIK-derived peptide, fragment homolog of P4] | 43.8 |  | 45.5 | 50.7 |
